The nature of series [1]: UV-Visible absorption (lambda max) of photochromic test square polymerizates in Varian Cary 3 UV-Visible spectrophotometer. Type of series: physicochemical. The settings on record: 1.5×10-3 molal; for (λ) max (VIS): maximum absorption of the activated (colored) form in the visible spectrum, test square; for (λ) max (UV): wavelength in the ultraviolet range closest to the visible spectrum at which absorption occurs, test square of BPA 2EO DMA/poly(ethylene glycol) 600 dimethacrylate. As to the method: (§1) Testing was done with the photochromic compounds described in Examples 1 through 4 and Comparative Examples 1 through 3 in the following manner. A quantity of photochromic compound calculated to yield a 1.5×10-3 molal solution was added to a flask containing 50 grams of a monomer blend of 4 parts ethoxylated bisphenol A dimethacrylate (BPA 2EO DMA), 1 part poly(ethylene glycol) 600 dimethacrylate, and 0.033 weight percent 2,2'-azobis(2-methyl propionitrile) (AIBN). The photochromic compound was dissolved into the monomer blend by stirring and gentle heating, if necessary. After a clear solution was obtained, it was poured into a flat sheet mold having the interior dimensions of 2.2 mm×6 inches (15.24 cm)×6 inches (15.24 cm). The mold was sealed and placed in a horizontal air flow, programmable oven programmed to increase the temperature from 40° C. to 95° C. over a 5 hour interval, hold the temperature at 95° C. for 3 hours, lower it to 60° C. over a 2 hour interval and then hold it at 60° C. for 16 hours. After the mold was opened, the polymer sheet was cut using a diamond blade saw into 2 inch (5.1 centimeters) test squares.
The ΔOD/Min, which represents the sensitivity of the photochromic compound's response to UV light, was measured over the first five (5) seconds of UV exposure, then expressed on a per minute basis. The saturation optical density (ΔOD@ Saturation) was taken under identical conditions as the ΔOD/Min, except UV exposure was continued for 15 minutes. The lambda max (Vis) is the wavelength in nanometers (nm) in the visible spectrum at which the maximum absorption of the activated (colored) form of the photochromic compound in a test square occurs. The lambda max (Vis) wavelength was determined by testing the photochromic test square polymerizates of Part A in a Varian Cary 3 UV-Visible spectrophotometer. The lambda (λ) max (UV) is the wavelength in nanometers in the ultraviolet range closest to the visible spectrum at which the absorption of the photochromic compound occurs. This absorption was also determined with the same spectrophotometer. The Bleach Rate (T 1/2) is the time interval in seconds for the absorbance of the activated form of the photochromic compound in the test squares to reach one half the highest absorbance at room temperature (72° F., 22.2° C.) after removal of the source of activating light.

A short description of series [2]: Photochromic response of test squares on optical bench (sensitivity, saturation optical density, bleach rate). Format: physicochemical. The following applies: for decrease in T 1/2 versus corresponding Comparative Example: % less than corresponding CE (Example 1 vs CE1; average of Examples 2 and 4 vs CE2; Example 3 vs CE3); for ΔOD@ Saturation: UV exposure continued for 15 minutes; for ΔOD@ Saturation / ΔOD/MIN Sensitivity: 72° F. (22.2° C.); for ΔOD/MIN Sensitivity: first five (5) seconds of UV exposure, expressed per minute, 0.15 to 0.20 mW/cm2; for Bleach Rate (T 1/2): time for absorbance of activated form to reach one half the highest absorbance at room temperature (72° F., 22.2° C.) after removal of activating light. As to the method: as §1
The photochromic test squares prepared in Part A were tested for photochromic response on an optical bench. Prior to testing on the optical bench, the photochromic test squares were conditioned, i.e., exposed to 365 nanometer ultraviolet light for about 15 minutes to activate the photochromic compounds and then placed in a 76° C. oven for about 15 minutes to bleach or inactivate the photochromic compounds. The test squares were then cooled to room temperature, exposed to fluorescent room lighting for at least 2 hours and then kept covered for at least 2 hours prior to testing on an optical bench maintained at 72° F. (22.2° C.). The bench was fitted with a 250 watt Xenon arc lamp, a remote controlled shutter, a copper sulfate bath acting as a heat sink for the arc lamp, a Schott WG-320 nm cut-off filter which removes short wavelength radiation; neutral density filter(s) and a sample holder in which the square to be tested was inserted. The power output of the optical bench, i.e., the dosage of light that the sample lens would be exposed to, was calibrated with a photochromic test square used as a reference standard. […] The UV-A detector was placed into the sample holder and the light output was measured. Adjustments to the power output were made by increasing or decreasing the lamp wattage or by adding or removing neutral density filters in the light path.
A monitoring, collimated beam of light from a tungsten lamp was passed through the square at a small angle (approximately 30°) normal to the square. After passing through the square, the light from the tungsten lamp was directed to a detector through Spectral Energy Corp. GM-200 monochromator set at the previously determined visible lambda max of the photochromic compound being measured. The output signals from the detector were processed by a radiometer.
Change in optical density (ΔOD) was determined by inserting a test square in the bleached state into the sample holder, adjusting the transmittance scale to 100%, opening the shutter from the Xenon lamp to provide ultraviolet radiation to change the test square from the bleached state to an activated (i.e., darkened) state, measuring the transmittance in the activated state, and calculating the change in optical density according to the formula: ΔOD=log(100/% Ta), where % Ta is the percent transmittance in the activated state and the logarithm is to the base 10.
The ΔOD/Min, which represents the sensitivity of the photochromic compound's response to UV light, was measured over the first five (5) seconds of UV exposure, then expressed on a per minute basis. The saturation optical density (ΔOD@ Saturation) was taken under identical conditions as the ΔOD/Min, except UV exposure was continued for 15 minutes. […]

In the case of “2,2-bis(4-methoxyphenyl)-5-methoxycarbonyl-6-methoxy(polyethoxy)-2H-naphtho[1,2-b]pyran [Example 1]”, in series [1], the “(λ) max (VIS)” value was 511 nm and the “(λ) max (UV)” value is 353 nm. For the same compound, in series [2], the “decrease in T 1/2 versus corresponding Comparative Example” value was 24%, the “ΔOD@ Saturation” value is recorded as 0.48, the “ΔOD/MIN Sensitivity” value is given as 0.19 ΔOD/MIN and the “Bleach Rate (T 1/2)” value turned out to be 1.72 min. In series [2] (Example 1 versus Comparative Example 1), the “Sensitivity, units less than corresponding Comparative Example” value was “more than 0.02 units”.

For the compound `COC(=O)c1c2c(c3ccccc3c1OC)OC(c1ccc(OC)cc1)(c1ccc(OC)cc1)C=C2` [CE1, 2,2-bis(4-methoxyphenyl)-5-methoxycarbonyl-6-methoxy-2H-naphtho[1,2-b]pyran, reference compound], in series [1], the “(λ) max (VIS)” value is given as 512 nm and the “(λ) max (UV)” value came out at 353 nm. Also, in series [2], the “ΔOD@ Saturation” value worked out at 0.77, the “ΔOD/MIN Sensitivity” value is given as 0.29 ΔOD/MIN and the “Bleach Rate (T 1/2)” value was found to be 2.27 min.

Regarding `COC(=O)c1c2c(c3ccccc3c1-c1ccccc1)OC(c1ccccc1)(c1ccccc1)C=C2` [CE2, 2,2-diphenyl-5-methoxycarbonyl-6-phenyl-2H-naphtho[1,2-b]pyran, reference compound], in series [1], the “(λ) max (VIS)” value worked out at 486 nm and the “(λ) max (UV)” value is 348 nm. For the same compound, in series [2], the “ΔOD@ Saturation” value is reported as 0.80, the “ΔOD/MIN Sensitivity” value is 0.28 ΔOD/MIN and the “Bleach Rate (T 1/2)” value was determined as 3.83 min.

As for `COC(=O)c1c2c(c3ccccc3c1C)OC(c1ccccc1)(c1ccccc1)C=C2` [CE3, 2,2-diphenyl-5-methoxycarbonyl-6-methyl-2H-naphtho[1,2b]pyran, reference compound], in series [1], the “(λ) max (VIS)” value is on record as 476 nm and the “(λ) max (UV)” value stood at 349 nm. Besides, in series [2], the “ΔOD@ Saturation” value came to 1.17, the “ΔOD/MIN Sensitivity” value is given as 0.23 ΔOD/MIN and the “Bleach Rate (T 1/2)” value turned out to be 7.75 min.

With `COCCOCCOC(=O)c1c2c(c3ccccc3c1-c1ccccc1)OC(c1ccccc1)(c1ccccc1)C=C2` [Example 2, 2,2-diphenyl-5-(2-(2-methoxyethoxy)ethoxycarbonyl)-6-phenyl[2H]naphtho[1,2-b]pyran], in series [1], the “(λ) max (VIS)” value is recorded as 486 nm and the “(λ) max (UV)” value is 348 nm. In addition, in series [2], the “ΔOD@ Saturation” value was 0.67, the “ΔOD/MIN Sensitivity” value is listed as 0.26 ΔOD/MIN and the “Bleach Rate (T 1/2)” value was 2.78 min.

On to `COCCOCCOCCOC(=O)c1c2c(c3ccccc3c1C)OC(c1ccccc1)(c1ccccc1)C=C2` [Example 3, 2,2-diphenyl-5-(2-(2-(2-methoxyethoxy)ethoxy)ethoxycarbonyl)-6-methyl-2H-naphtho[1,2b]pyran], for which, in series [1], the “(λ) max (VIS)” value is 475 nm and the “(λ) max (UV)” value is given as 349 nm. For the same compound, in series [2], the “decrease in T 1/2 versus corresponding Comparative Example” value came out at 42%, the “ΔOD@ Saturation” value came to 0.86, the “ΔOD/MIN Sensitivity” value is 0.24 ΔOD/MIN and the “Bleach Rate (T 1/2)” value came out at 4.5 min.

As to `COCCOCCOCCOC(=O)c1c2c(c3ccccc3c1-c1ccccc1)OC(c1ccccc1)(c1ccccc1)C=C2` [Example 4, 2,2-diphenyl-5-(2-(2-(2-methoxyethoxy)ethoxy)ethoxy-carbonyl)-6-phenyl-2H-naphtho[1,2-b]pyran], in series [1], the “(λ) max (VIS)” value is on record as 486 nm and the “(λ) max (UV)” value came out at 348 nm. In addition, in series [2], the “ΔOD@ Saturation” value was 0.67, the “ΔOD/MIN Sensitivity” value is on record as 0.28 ΔOD/MIN and the “Bleach Rate (T 1/2)” value worked out at 2.75 min.

For the origin of these results see patent US5961892A, “Polyalkoxylated naphthopyrans” (PPG Industries Ohio, Inc., priority 1998, dated 1999).
